experiment: not given; assay type: physicochemical; conditions: solid salt storage, 1440 h
Protocol: Stability tests were carried out on the salts prepared in the described manner, by keeping the product in an oven temperature controlled at 45° C. and determining the percentage of residual salt at fixed times. The tests were carried out in comparison with SAM.nHCl salts in which n=1,2 and 3, prepared by the known method (U.S. Pat. No. 2,969,353), and in comparison with SAM.nH2 SO4 salts in which n=0.5,1 and 1.5, also prepared by the known method (West German patent application No. 1,803,978).
The following tables show the percentages of decomposed salt at the times indicated:
Analytical conditions used:
SAM retention time: about 400 seconds.

| Compound | degradation at 45° C. after 60 days |
| --- | --- |
| C[S+](CCC(N)C(=O)[O-])CC1OC(n2cnc3c(N)ncnc32)C(O)C1O (stereo not drawn) [SAM.nH2 SO4, n=1.5, reference compound] | 30% |
| C[S+](CCC(N)C(=O)[O-])CC1OC(n2cnc3c(N)ncnc32)C(O)C1O (stereo not drawn) [SAM.nHCl, n=2, reference compound] | 80% |
| C[S+](CCC(N)C(=O)[O-])CC1OC(n2cnc3c(N)ncnc32)C(O)C1O (stereo not drawn) [SAM.2HCl.nH2 SO4, n=0.5, reference compound] | 30% |
| C[S+](CCC(N)C(=O)[O-])CC1OC(n2cnc3c(N)ncnc32)C(O)C1O (stereo not drawn) [SAM.6HCl.0.7H2 O] | 5% |
| C[S+](CCC(N)C(=O)[O-])CC1OC(n2cnc3c(N)ncnc32)C(O)C1O (stereo not drawn) [SAM.nH2 SO4, n=0.5, reference compound] | 100% |

same assay, conditions: solid salt storage, 2880 h

| Compound | degradation at 45° C. after 120 days |
| --- | --- |
| C[S+](CCC(N)C(=O)[O-])CC1OC(n2cnc3c(N)ncnc32)C(O)C1O (stereo not drawn) [SAM.5HCl] | 1.5% |
| C[S+](CCC(N)C(=O)[O-])CC1OC(n2cnc3c(N)ncnc32)C(O)C1O (stereo not drawn) [SAM.2.5H2 SO4] | 1.5% |
| C[S+](CCC(N)C(=O)[O-])CC1OC(n2cnc3c(N)ncnc32)C(O)C1O (stereo not drawn) [SAM.1.5H2 SO4.nHCl, n=2] | 1.5% |
| C[S+](CCC(N)C(=O)[O-])CC1OC(n2cnc3c(N)ncnc32)C(O)C1O (stereo not drawn) [SAM.nH2 SO4, n=1.5, reference compound] | 60% |
| C[S+](CCC(N)C(=O)[O-])CC1OC(n2cnc3c(N)ncnc32)C(O)C1O (stereo not drawn) [SAM.nHCl, n=2, reference compound] | 100% |
| C[S+](CCC(N)C(=O)[O-])CC1OC(n2cnc3c(N)ncnc32)C(O)C1O (stereo not drawn) [SAM.2HCl.nH2 SO4, n=0.5, reference compound] | 60% |
| C[S+](CCC(N)C(=O)[O-])CC1OC(n2cnc3c(N)ncnc32)C(O)C1O (stereo not drawn) [SAM.6HCl.0.7H2 O] | 10% |
| C[S+](CCC(N)C(=O)[O-])CC1OC(n2cnc3c(N)ncnc32)C(O)C1O (stereo not drawn) [SAM.nH2 SO4, n=0.5, reference compound] | 100% |

same assay, conditions: solid salt storage, 4320 h

| Compound | degradation at 45° C. after 180 days |
| --- | --- |
| C[S+](CCC(N)C(=O)[O-])CC1OC(n2cnc3c(N)ncnc32)C(O)C1O (stereo not drawn) [SAM.5HCl] | 3% |
| C[S+](CCC(N)C(=O)[O-])CC1OC(n2cnc3c(N)ncnc32)C(O)C1O (stereo not drawn) [SAM.2.5H2 SO4] | 3% |
| C[S+](CCC(N)C(=O)[O-])CC1OC(n2cnc3c(N)ncnc32)C(O)C1O (stereo not drawn) [SAM.1.5H2 SO4.nHCl, n=2] | 3% |
| C[S+](CCC(N)C(=O)[O-])CC1OC(n2cnc3c(N)ncnc32)C(O)C1O (stereo not drawn) [SAM.nH2 SO4, n=1.5, reference compound] | 80% |
| C[S+](CCC(N)C(=O)[O-])CC1OC(n2cnc3c(N)ncnc32)C(O)C1O (stereo not drawn) [SAM.nHCl, n=2, reference compound] | 100% |
| C[S+](CCC(N)C(=O)[O-])CC1OC(n2cnc3c(N)ncnc32)C(O)C1O (stereo not drawn) [SAM.2HCl.nH2 SO4, n=0.5, reference compound] | 80% |
| C[S+](CCC(N)C(=O)[O-])CC1OC(n2cnc3c(N)ncnc32)C(O)C1O (stereo not drawn) [SAM.6HCl.0.7H2 O] | 14% |
| C[S+](CCC(N)C(=O)[O-])CC1OC(n2cnc3c(N)ncnc32)C(O)C1O (stereo not drawn) [SAM.nH2 SO4, n=0.5, reference compound] | 100% |

same assay, conditions: solid salt storage, 5760 h

| Compound | degradation at 45° C. after 240 days |
| --- | --- |
| C[S+](CCC(N)C(=O)[O-])CC1OC(n2cnc3c(N)ncnc32)C(O)C1O (stereo not drawn) [SAM.5HCl] | 4.5% |
| C[S+](CCC(N)C(=O)[O-])CC1OC(n2cnc3c(N)ncnc32)C(O)C1O (stereo not drawn) [SAM.2.5H2 SO4] | 4.5% |
| C[S+](CCC(N)C(=O)[O-])CC1OC(n2cnc3c(N)ncnc32)C(O)C1O (stereo not drawn) [SAM.1.5H2 SO4.nHCl, n=2] | 4.5% |
| C[S+](CCC(N)C(=O)[O-])CC1OC(n2cnc3c(N)ncnc32)C(O)C1O (stereo not drawn) [SAM.nH2 SO4, n=1.5, reference compound] | 100% |
| C[S+](CCC(N)C(=O)[O-])CC1OC(n2cnc3c(N)ncnc32)C(O)C1O (stereo not drawn) [SAM.nHCl, n=2, reference compound] | 100% |
| C[S+](CCC(N)C(=O)[O-])CC1OC(n2cnc3c(N)ncnc32)C(O)C1O (stereo not drawn) [SAM.2HCl.nH2 SO4, n=0.5, reference compound] | 100% |
| C[S+](CCC(N)C(=O)[O-])CC1OC(n2cnc3c(N)ncnc32)C(O)C1O (stereo not drawn) [SAM.6HCl.0.7H2 O] | 17% |
| C[S+](CCC(N)C(=O)[O-])CC1OC(n2cnc3c(N)ncnc32)C(O)C1O (stereo not drawn) [SAM.nH2 SO4, n=0.5, reference compound] | 100% |

same assay, conditions: solid salt storage, 8640 h

| Compound | degradation at 45° C. after 360 days |
| --- | --- |
| C[S+](CCC(N)C(=O)[O-])CC1OC(n2cnc3c(N)ncnc32)C(O)C1O (stereo not drawn) [SAM.5HCl] | 5% |
| C[S+](CCC(N)C(=O)[O-])CC1OC(n2cnc3c(N)ncnc32)C(O)C1O (stereo not drawn) [SAM.2.5H2 SO4] | 5% |
| C[S+](CCC(N)C(=O)[O-])CC1OC(n2cnc3c(N)ncnc32)C(O)C1O (stereo not drawn) [SAM.1.5H2 SO4.nHCl, n=2] | 5% |
| C[S+](CCC(N)C(=O)[O-])CC1OC(n2cnc3c(N)ncnc32)C(O)C1O (stereo not drawn) [SAM.nH2 SO4, n=1.5, reference compound] | 100% |
| C[S+](CCC(N)C(=O)[O-])CC1OC(n2cnc3c(N)ncnc32)C(O)C1O (stereo not drawn) [SAM.nHCl, n=2, reference compound] | 100% |
| C[S+](CCC(N)C(=O)[O-])CC1OC(n2cnc3c(N)ncnc32)C(O)C1O (stereo not drawn) [SAM.2HCl.nH2 SO4, n=0.5, reference compound] | 100% |
| C[S+](CCC(N)C(=O)[O-])CC1OC(n2cnc3c(N)ncnc32)C(O)C1O (stereo not drawn) [SAM.6HCl.0.7H2 O] | 20% |
| C[S+](CCC(N)C(=O)[O-])CC1OC(n2cnc3c(N)ncnc32)C(O)C1O (stereo not drawn) [SAM.nH2 SO4, n=0.5, reference compound] | 100% |

experiment: Residual moisture; assay type: physicochemical; conditions: Tables 1-4, salts lyophilised without support

| Compound | residual moisture |
| --- | --- |
| C[S+](CCC(N)C(=O)[O-])CC1OC(n2cnc3c(N)ncnc32)C(O)C1O (stereo not drawn) [SAM.1.5H2 SO4.nHCl, n=2] | 1.5% |
| C[S+](CCC(N)C(=O)[O-])CC1OC(n2cnc3c(N)ncnc32)C(O)C1O (stereo not drawn) [SAM.nH2 SO4, n=1.5, reference compound] | 0.8% |
| C[S+](CCC(N)C(=O)[O-])CC1OC(n2cnc3c(N)ncnc32)C(O)C1O (stereo not drawn) [SAM.nHCl, n=2, reference compound] | 0.5% |
| C[S+](CCC(N)C(=O)[O-])CC1OC(n2cnc3c(N)ncnc32)C(O)C1O (stereo not drawn) [SAM.2HCl.nH2 SO4, n=0.5, reference compound] | 0.8% |
| C[S+](CCC(N)C(=O)[O-])CC1OC(n2cnc3c(N)ncnc32)C(O)C1O (stereo not drawn) [SAM.nH2 SO4, n=0.5, reference compound] | 0.2% |

same assay, conditions: Tables 1-4, salts lyophilised without support; listed as SAM.2HCl.nH2 SO4, n=1.5

| Compound | residual moisture |
| --- | --- |
| C[S+](CCC(N)C(=O)[O-])CC1OC(n2cnc3c(N)ncnc32)C(O)C1O (stereo not drawn) [SAM.1.5H2 SO4.nHCl, n=2] | 1.5% |

same assay, conditions: Tables 1-4, salts lyophilised without support; listed as SAM.nH2 SO4, n=3.5

| Compound | residual moisture |
| --- | --- |
| C[S+](CCC(N)C(=O)[O-])CC1OC(n2cnc3c(N)ncnc32)C(O)C1O (stereo not drawn) [SAM.2.5H2 SO4] | 1.5% |

same assay, conditions: Tables 1-4, salts lyophilised without support; listed as SAM.nHCl, n=5

| Compound | residual moisture |
| --- | --- |
| C[S+](CCC(N)C(=O)[O-])CC1OC(n2cnc3c(N)ncnc32)C(O)C1O (stereo not drawn) [SAM.5HCl] | 1.5% |

same assay, conditions: Tables 1-4, salts lyophilised without support; listed as SAM.nHCl, n=6

| Compound | residual moisture |
| --- | --- |
| C[S+](CCC(N)C(=O)[O-])CC1OC(n2cnc3c(N)ncnc32)C(O)C1O (stereo not drawn) [SAM.6HCl.0.7H2 O] | 2% |

same assay, conditions: lyophilised without support, with mannitol or with Aerosil

| Compound | residual moisture |
| --- | --- |
| C[S+](CCC(N)C(=O)[O-])CC1OC(n2cnc3c(N)ncnc32)C(O)C1O (stereo not drawn) [SAM.5HCl] | 1.5% |

experiment: Wide pharmacological screening trial; assay type: in vivo; conditions: independent of the anion bonded to the SAM
Excerpt: It was established that the activity of the new salts depends substantially on the capacity of the SAM^+ ion released in the organism to act as a donor of methyl groups, as the natural substrate of a large number of transmethylase enzymes which catalyse fundamental reactions of the lipid, protide and glucide metabolism.

| Compound | activity and toxicity characteristics |
| --- | --- |
| C[S+](CCC(N)C(=O)[O-])CC1OC(n2cnc3c(N)ncnc32)C(O)C1O (stereo not drawn) [SAM.5HCl] | highly interesting activity and toxicity characteristics |

experiment: physchem; conditions: water

| Compound | solubility |
| --- | --- |
| C[S+](CCC(N)C(=O)[O-])CC1OC(n2cnc3c(N)ncnc32)C(O)C1O (stereo not drawn) [SAM.2.5H2 SO4] | > 200 mg/mL |

experiment: not given; conditions: prior-art salts; cited from earlier work

| Compound | temperature up to which the salt is stable |
| --- | --- |
| C[S+](CCC(N)C(=O)[O-])CC1OC(n2cnc3c(N)ncnc32)C(O)C1O (stereo not drawn) [triparatoluene sulphonate, SAM triparatoluene sulphonate] | up to 25 °C |
| C[S+](CCC(N)C(=O)[O-])CC1OC(n2cnc3c(N)ncnc32)C(O)C1O (stereo not drawn) [disulphatediparatoluene sulphonate, SAM disulphatediparatoluene sulphonate] | up to 45 °C |

— patent publication US4543408A, “Stable S-adenosylmethionine salts, the process for their preparation, and therapeutic compositions which contain them as active principle” (Bioresearch S.p.A., priority 1981, dated 1985)
